“And” between values parts separate entries of the source, which are not always exact repeats. Equal entries are not always repeated.

Experiment [1] addresses T1, AvGluR1 LBD (Adineta vaga, UniProt E9P5T5, INS567GT).
T1 sequence (E9P5T5 with tags, fused parts or gaps INS567GT): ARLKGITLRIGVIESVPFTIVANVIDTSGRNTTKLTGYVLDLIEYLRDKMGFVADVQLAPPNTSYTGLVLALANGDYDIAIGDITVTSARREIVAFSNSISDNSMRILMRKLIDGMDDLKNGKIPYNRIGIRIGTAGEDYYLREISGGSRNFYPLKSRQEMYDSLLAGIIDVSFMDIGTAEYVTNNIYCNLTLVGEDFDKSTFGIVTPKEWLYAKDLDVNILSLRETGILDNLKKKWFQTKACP
The experiment can be described thus: biochemical. In kind it is binding. The note with it: for binding affinity: β-carbon branched amino acids.

The subject of experiment [2] is AvGluR1. The settings on record: prior studies; ref Janovjak et al., 2011; cited from earlier work.
Experiment [3] addresses T1, AvGluR1 LBD. The experiment can be described thus: Competitive displacement of [3H] L-glutamate with NaCl substituted by HEPES. The class given is binding.
Experiment [4] concerns the target T1, AvGluR1 LBD. The experiment can be described thus: Competitive displacement of 100 nM [3H] L-glutamate by 100 μM amino acids. In kind it is binding. The note with it: 100 μM competing amino acid.
Experiment [5] concerns the target GluR0 from Synechocystis. The settings on record: read-out: Kd for glutamate, ref Chen et al., 1999; cited from earlier work.
Experiment [6] addresses T1, AvGluR1 LBD. The experiment can be described thus: Saturation binding of [3H] L-glutamate to AvGluR1 LBD apo protein.
The subject of experiment [7] is AvGluR1. The class given is cell-based, Adineta vaga. The note with it: for time constant of onset of desensitization (Figure 2A traces): 2.8 mM alanine; for amplitude of response relative to glutamate: normalized to 60 μM glutamate in the same oocyte.
Where [8] appears, read: displacement of 100 nM [3H] L-Glu, NaCl buffer.
[9] abbreviates: Kd in Cl−, competitive displacement of [3H] L-glutamate, NaCl reaction buffer.
The mark [10] stands for this setting: ligand applied at 300 times the Kd.
[11] abbreviates: Kd, displacement of 100 nM [3H] L-Glu, NaCl buffer.

In general, Kd refers to the concentration at which binding is half-saturated. For the molecule `O=[N+]([O-])c1cc2nc(O)c(O)nc2cc1[N+](=O)[O-]` [DNQX], in experiment [1] (setting [8]), binding was put at a Kd of 250 µM.
On the same count and under the same terms, then `CN[C@H](CC(=O)O)C(=O)O` [NMDA], with 9900 µM.
For the molecule `N[C@@H](CCC(=O)O)C(=O)O` [glutamate, L-glutamate], the “activation of AvGluR1 (ligand activated ion currents)” value (“activation of AvGluR1” for short) in experiment [2] is on record as “activation”. Besides, the Kd in experiment [3] was 0.3 ± 0.04 µM; in experiment [1] (setting [9]), 0.27 ± 0.02 µM; in experiment [1] (Kd, sequence of Kd values, Figure 1C and Table S1) it was 0.203 µM; in experiment [5], 0.193 µM; in experiment [6], 0.203 ± 0.018 µM. For the same molecule, the “effect on binding of 100 nM [3H] L-glutamate” value in experiment [4] is recorded as “abolished”. The same molecule had a 10-90% rise time in experiment [7] (60 μM glutamate) of 240 ± 67 ms. In experiment [7] (60 μM glutamate), the “time constant of desensitization (single exponential)” value was 626 ± 255 ms. Moreover, the “time constant of onset of desensitization (Figure 2A traces)” value in experiment [7] (60 μM glutamate) was found to be 1.25 s. The molecule further returned an inward current amplitude in experiment [7] (60 μM glutamate, mean ± SD, n = 9) of 5.1 ± 1.4 μA. Moreover, the “time constant of recovery from desensitization” value in experiment [7] (60 μM glutamate, twin pulse protocol) was 26 s and 25.7 s. Further, in experiment [7] (100 μM glutamate, wild type AvGluR1 control response (Figure 7D)), the “time constant of onset of desensitization” value is 460 ms. In addition, the “extent of desensitization” value in experiment [7] (setting [10]) is “complete desensitization”.
As to `CC[C@H](C)[C@H](N)C(=O)O` [isoleucine], the “binding affinity” value in experiment [1] is reported as “low affinity”.
Take `NC(CCCP(=O)(O)O)C(=O)O` (stereo not shown) [AP5]: the affinity in experiment [1] (setting [8]), expressed as Kd, was 530 µM.
Turning to `N[C@@H](CO)C(=O)O` [serine], the “activation of AvGluR1” value in experiment [2] is given as “activation”.
`N[C@@H](Cn1oc(=O)[nH]c1=O)C(=O)O` [quisqualate]: the equilibrium dissociation constant (Kd) in experiment [1] (setting [11]) was 39 µM.
On to `N[C@@H](CS)C(=O)O` [cysteine], for which binding in experiment [1] (setting [11]) was put at a Kd of 46 µM. For the same molecule, the “amplitude of response relative to glutamate” value in experiment [7] (setting [10]) stood at 86 ± 8%.
Consider `NC(=O)CC[C@H](N)C(=O)O` [glutamine], for which the Kd in experiment [1] (setting [11]) is 37 µM.
For the molecule `C[C@H](C[C@H](N)C(=O)O)C(=O)O` [SYM2081, 2S,4R-4-methyl glutamate], the “fold lower affinity for AvGluR1” value in experiment [1] (comparator not given) is on record as 250 fold. In experiment [1] (setting [8]), the Kd came out at 49.5 µM.
As for `C[C@@H](O)[C@H](N)C(=O)O` [threonine], the “binding affinity” value in experiment [1] is “low affinity”.
In experiment [1] (setting [11]), `NC(=O)C[C@H](N)C(=O)O` [asparagine] displayed a Kd of 81 µM.
Turning to `C[C@H](N)C(=O)O` [alanine], the “time constant of onset of desensitization (Figure 2A traces)” value in experiment [7] (60 μM glutamate) came out at 1.0 s.
Turning to `CSCC[C@H](N)C(=O)O` [methionine], the dissociation constant Kd in experiment [3] stood at 270 ± 52 µM; in experiment [1] (setting [9]) it was 15.1 ± 2.5 µM; in experiment [1] (setting [11]) it was 15 µM. In addition, in experiment [7] (setting [10]), the “amplitude of response relative to glutamate” value was 64 ± 7%.
In the case of `N[C@@H](CC(=O)O)C(=O)O` [aspartate], the “activation of AvGluR1” value in experiment [2] is “activation”. In experiment [4], the “effect on binding of 100 nM [3H] L-glutamate” value is on record as “abolished”.
Regarding `Cc1cn(C[C@H](N)C(=O)O)c(=O)n(Cc2ccsc2C(=O)O)c1=O` [UBP-310], the dissociation constant (Kd) in experiment [1] (setting [8]) was determined as 160 µM.
`N[C@H](CCC(=O)O)C(=O)O` [D-Glu] had a Kd in experiment [1] (setting [8]) of 130 µM.
On to `C=C(C)[C@H]1CN[C@H](C(=O)O)[C@H]1CC(=O)O` [kainate], for which the “activation of AvGluR1” value in experiment [2] is reported as “activation”. Besides, the Kd in experiment [1] (setting [8]) was 2700 µM.
As for `CC(C)[C@H](N)C(=O)O` [valine], in experiment [1], the “binding affinity” value was “low affinity”.
For the molecule `N[C@@H](Cc1ccccc1)C(=O)O` [phenylalanine], in experiment [7] (setting [10]), the “amplitude of response relative to glutamate” value is reported as 33 ± 6%.
In the case of concanavalin A, the “effect on AvGluR1 desensitization” value in experiment [7] (0.5 mg/ml for 4 minutes) is listed as “strongly attenuated”.
Regarding `Cc1o[nH]c(=O)c1CC(N)C(=O)O` (stereo not shown) [AMPA], in experiment [2], the “activation of AvGluR1” value is recorded as “activation”. Also, the dissociation constant (Kd) in experiment [1] (setting [8]) was found to be 130 µM.

Values taken from publication PMC4096996 (Structure (London, England : 1993), 2013).
